# Source: patent US12570607B2, “Compound as cyclin-dependent kinase 9 inhibitor and use thereof” (CSPC Zhongqi Pharmaceutical Technology (Shijiazhuang) Co., …, priority 2019, dated 2026)
# Key:
# [1] = test system: human acute myelocytic leukemia MV4;11 cell subcutaneous xenograft tumor; assay: In vivo antitumor activity in MV4;11 cell subcutaneous xenograft tumor model; parameters: species or system NOD-SCID mice; settings: MV4;11 xenograft, p.o.
# Procedure: Cell culture: IMDM culture medium containing 10% fetal bovine serum (FBS), 37° C., 5% CO2.
# (§1) NOD-SCID mice, female, 6-8 weeks(18-22 g), each mouse was subcutaneously inoculated with 0.1 mL (1×10^8) MV4;11 cells on the right back of each mouse. When the average tumor volume reached 150 mm^3, drug administration was started. The tumor volume was measured twice a week, and the volume was calculated in cubic millimeters. When the average tumor volume in the vehicle group reached more than 800 mm^3, the administration was terminated to compare the difference in the average tumor volume between the compound groups and the vehicle group. The antitumor efficacy of the compounds was evaluated by TGI (%). TGI (%) reflected the tumor growth inhibition rate.
# hERG channel = hERG channel (Homo sapiens (Human), UniProt Q12809); assay: In vitro hERG inhibitory activity, whole-cell patch-clamp on CHO-K1 cell line stably expressing the hERG channel
# Description: Rapid delayed rectifier current (IKr) was mainly mediated by the hERG ion channel and involved in human cardiomyocyte repolarization. Inhibition of IKr was the leading cause of the clinical QT interval prolongation syndrome, even acute cardiac dysrhythmia, and even sudden death. By utilizing a whole-cell patch-clamp technology, the blocking effect of a compound on the hERG channel was detected on a CHO-K1 cell line stably expressing the hERG channel, and the half inhibition concentration IC50 of the compound was determined. It was used as a part of the comprehensive cardiac safety assessment, and it was initially evaluated in the safety in vitro screen for cardiotoxicity.
# This assay included the following aspects: • The hERG current was recorded on the CHO-K1 cell line stably expressing the hERG channel by utilizing the manual patch-clamp technology; • The inhibition rate at each concentration was calculated according to the hERG tail current; • The measurement was performed at 5 concentrations for each compound to calculate the IC50 value; • 3 cells were tested at each concentration; • One positive control drug was provided.
# The hERG current was recorded by utilizing a whole-cell patch-clamp technology. The cell suspension was added to a dish, and the dish was placed on the object stage of an upright microscope. After adhesion of the cells, perfusion was performed with an extracellular fluid at a flow rate of […]. A glass microelectrode was pulled with a microelectrode puller via a two-step process and the pipette rip resistance was between 2-5 MΩ. After the whole-cell record was set up, the clamp potential was held at −80 mV. The cells were depolarized to +60 mV by applying a voltage stimulus and then repolarized to −50 mV to elicit the hERG tail current. All recordation was conducted after the current became stable. The extracellular perfusion administration was started from the lowest concentration, staying for 5-10 min at each concentration until the current was stable, and then conducted with the next concentration.
# MV4;11 cells = assay: In vitro MV4;11 cell proliferation inhibition (MTT method); type: cell-based; settings: Homo sapiens
# Description: The in vitro inhibitory effect of the synthesized compounds on cell proliferation was investigated.
# The trade name of MTT was thiazole blue, which was a tetrazolium salt of a dye that could accept hydrogen atoms. […] Dimethyl sulfoxide could dissolve blue-purple complexes in cells, and its light absorption value could be measured at 490-550 nm wavelength with an enzyme-linked immunosorbent detector, which could indirectly reflect the number of cells. Within a certain range of the cell number, the amount of MTT crystals formed was proportional to the number of cells. The drug to be tested was successively diluted to different concentrations and added to a 96-well plate. The OD value was determined after the drug acted for a certain time. The size of the OD value could reflect the number of living cells, and its IC50 value was calculated with SPSS19.0.
# Suspension of cells: Cells were […] by centrifugation and counted. A certain density of cell suspension was formulated with a complete culture medium, blown evenly, inoculated on a 96-well plate, 100 μL per well, and then cultured in a CO2 incubator.
# An appropriate amount of the drug was added to a calculated amount of DMSO and dissolved. The resulting mixture was dispensed and stored at −20° C. The formulation concentration was 10 mM.
# The stock solution of the compound having a concentration of 10 mM was diluted into different concentrations (8 concentrations) of solutions of the compound in DMSO (3-fold dilution, 20×final concentration). Each concentration of solutions (10 μL) of the compound in DMSO was respectively diluted with cell culture media (90 μL) to formulate working solutions (2×final concentration). Each concentration of working solutions (100 μL) of the compound was added to the 96-well plate inoculated with cells (1×final concentration, the highest final concentration is 1000 nM). The resulting plate continued to be cultured in a CO2 incubator.
# The 96-well plate was taken out, and the density of cells was observed under a microscope. The test was performed with the MTT method.
# MTT method: 20 μL of MTT was added to each well; the plate was cultured for about 4 hours in the incubator; the liquid in the well was discarded; 150 μL of DMSO was added into each well; the plate was placed in a shaker and shaken for 5-10 minutes, and the test was performed with a microplate reader at a wavelength of 550 nm. 7. Data analysis: IC50 value of the drug was calculated with SPSS19.0 statistical software.
# [2] = test system: human acute promyelocytic leukemia HL-60 cell subcutaneous xenograft tumor; assay: In vivo antitumor activity in HL-60 cell subcutaneous xenograft tumor model; parameters: species or system Nu/Nu mice; settings: HL-60 xenograft, qd, p.o., 5 mg/Kg, 9 days
# Procedure: as §1, with “Cell culture: IMDM culture medium containing 20% fetal bovine serum (FBS), 37° C., 5% CO2; Nu/Nu” for “NOD-SCID”, “weeks (18-22” for “weeks(18-22”, “of HL-60 cell suspension (containing about 1×10^7 cells) in the axillary region of” for “(1×10^8) MV4;11 cells on”, “forelimb.” for “back of each mouse.”, “2-3 times per” for “twice a”, “group” for “groups”
# hERG channel, sequence (Q12809 whole entry): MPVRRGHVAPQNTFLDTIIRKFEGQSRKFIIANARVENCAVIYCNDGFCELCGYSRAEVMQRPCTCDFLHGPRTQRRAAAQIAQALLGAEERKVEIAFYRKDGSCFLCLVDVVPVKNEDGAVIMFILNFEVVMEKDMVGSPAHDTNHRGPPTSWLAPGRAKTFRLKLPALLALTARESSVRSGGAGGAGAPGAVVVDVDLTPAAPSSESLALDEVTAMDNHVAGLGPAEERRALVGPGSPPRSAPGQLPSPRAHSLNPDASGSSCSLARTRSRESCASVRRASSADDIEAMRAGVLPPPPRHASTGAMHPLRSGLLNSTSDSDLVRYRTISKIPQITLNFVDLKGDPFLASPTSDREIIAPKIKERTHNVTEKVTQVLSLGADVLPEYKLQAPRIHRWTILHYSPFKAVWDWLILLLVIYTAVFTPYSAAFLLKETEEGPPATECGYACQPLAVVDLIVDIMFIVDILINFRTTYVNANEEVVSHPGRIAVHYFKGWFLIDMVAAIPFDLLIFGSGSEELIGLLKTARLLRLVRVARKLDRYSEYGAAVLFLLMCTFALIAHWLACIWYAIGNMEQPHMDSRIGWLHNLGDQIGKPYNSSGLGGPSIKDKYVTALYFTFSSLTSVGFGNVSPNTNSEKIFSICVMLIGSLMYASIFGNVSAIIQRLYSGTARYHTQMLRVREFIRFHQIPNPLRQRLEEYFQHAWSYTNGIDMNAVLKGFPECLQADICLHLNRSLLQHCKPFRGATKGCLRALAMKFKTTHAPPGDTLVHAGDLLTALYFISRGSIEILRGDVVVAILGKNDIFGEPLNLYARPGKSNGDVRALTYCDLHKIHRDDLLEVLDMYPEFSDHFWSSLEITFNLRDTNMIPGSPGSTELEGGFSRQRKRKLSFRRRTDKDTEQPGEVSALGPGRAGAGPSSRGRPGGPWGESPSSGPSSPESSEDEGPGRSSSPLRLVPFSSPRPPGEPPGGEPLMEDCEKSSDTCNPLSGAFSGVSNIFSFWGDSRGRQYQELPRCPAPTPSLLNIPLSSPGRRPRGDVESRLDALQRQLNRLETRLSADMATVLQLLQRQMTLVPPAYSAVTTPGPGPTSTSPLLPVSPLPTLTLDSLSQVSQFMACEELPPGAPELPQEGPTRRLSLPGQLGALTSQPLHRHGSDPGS
Structure (SMILES),IC50 (MV4;11 cells) [nM],"TGI(%) ([1]; q2d, 20 mg/Kg, 9 days)",IC50 (hERG channel) [nM],"TGI(%) ([1]; qd, 5 mg/Kg, 9 days)",TGI(%) [2] [%],"TGI(%) ([1]; qd, 5 mg/Kg, 16 days)","TGI(%) ([1]; qd, 5 mg/Kg, 7 days)"
COc1cc(F)ccc1-c1ccnc(NC(=O)[C@H]2CCC[C@@H](NC(C)=O)C2)c1,,51.5,,,,,
COc1cc(F)ccc1-c1cc(NC(=O)[C@H]2CCC[C@@H](NC(C)=O)C2)ncc1F [Compound 5],37,98.5,> 30000,,,,
COc1cc(F)ccc1-c1cc(NC(=O)[C@H]2CCC[C@@H](NC(=O)CO)C2)ncc1F [Compound 45],34,,> 30000,,58.0,62.9,

# Continued, in another order:
IC50 (MV4;11 cells) [nM],Structure (SMILES),"TGI(%) ([1]; q2d, 20 mg/Kg, 9 days)",IC50 (hERG channel) [nM],"TGI(%) ([1]; qd, 5 mg/Kg, 9 days)",TGI(%) [2] [%],"TGI(%) ([1]; qd, 5 mg/Kg, 16 days)","TGI(%) ([1]; qd, 5 mg/Kg, 7 days)"
17,COc1cc(F)ccc1-c1cc(NC(=O)[C@H]2CCC[C@@H](NC(=O)C3(C#N)CC3)C2)ncc1F [Compound 33],,> 30000,56.9,,,
67,COc1cc(F)c(F)cc1-c1cc(NC(=O)[C@H]2CCC[C@@H](NC(=O)C3(C#N)CC3)C2)ncc1F [Compound 67],,,67.8,67.8,,
50,COc1cc(F)c(F)cc1-c1cc(NC(=O)[C@H]2CCC[C@@H](NC(=O)CO)C2)ncc1F [Compound 68],,> 30000,,90.2,,78.1
